The values that follow come from US11976083B2, “Inhibitors of peptidylarginine deiminases” (Gilead Sciences, Inc., priority 2020, dated 2024).

The assay concerns the target T1, human PAD4 (Homo sapiens, UniProt Q9UM07).
T1 construct: human PAD4 (NM_012387), A2-P663, was PCR amplified; His-SUMO (N, cleaved yes); made in house; host or cells: E. coli BL21(DE3)
The assay can be described thus: In vitro PAD4 BAEE biochemical assay. The conditions noted are these: BAEE substrate 3 mM, 5 nM PAD4, 2 mM calcium chloride; geometric mean of multiple experiments. The essentials:
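Assay was run at 25 °C using 3 mM BAEE and 5 nM human PAD4 after a 30 min compound preincubation; ammonia produced over 2 h was quantified by OPA-derived fluorescence. Full inhibition was defined by 50 µM BB-Cl-Amidine, and IC50 came from variable-slope nonlinear regression.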

T1 sequence (Q9UM07 2-663): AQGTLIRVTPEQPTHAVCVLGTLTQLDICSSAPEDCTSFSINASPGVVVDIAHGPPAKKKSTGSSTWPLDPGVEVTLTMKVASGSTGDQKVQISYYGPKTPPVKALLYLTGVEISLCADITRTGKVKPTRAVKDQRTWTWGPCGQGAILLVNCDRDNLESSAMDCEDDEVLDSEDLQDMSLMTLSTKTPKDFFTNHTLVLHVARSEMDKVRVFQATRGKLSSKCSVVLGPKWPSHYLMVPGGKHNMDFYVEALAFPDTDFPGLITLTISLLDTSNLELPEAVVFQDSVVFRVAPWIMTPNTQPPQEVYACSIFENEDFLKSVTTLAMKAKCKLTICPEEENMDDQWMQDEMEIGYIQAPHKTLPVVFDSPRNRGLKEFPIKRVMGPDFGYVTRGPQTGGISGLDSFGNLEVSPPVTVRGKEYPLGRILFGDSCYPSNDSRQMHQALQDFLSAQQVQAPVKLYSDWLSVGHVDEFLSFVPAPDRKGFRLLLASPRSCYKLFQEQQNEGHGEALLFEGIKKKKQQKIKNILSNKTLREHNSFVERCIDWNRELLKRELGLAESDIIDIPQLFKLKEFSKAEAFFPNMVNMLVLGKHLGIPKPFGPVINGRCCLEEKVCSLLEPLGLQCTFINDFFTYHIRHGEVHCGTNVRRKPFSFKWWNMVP

The term IC50 denotes the midpoint of a concentration-inhibition curve. For `COc1cc(C(=O)N2CCC[C@@H](N)C2)cc2nc(-c3cc4ccc5nc4n3C[C@@H]3C[C@H]3CC[C@@H]3C[C@H]3C(=O)N[C@@H]5C)n(C)c12` [Example 168, (3~{R},5~{R},8~{R},10~{R},13~{R})-19-[5-[(3~{R})-3-aminopiperidine-1-carbonyl]-7-methoxy-1-methyl-benzimidazol-2-yl]-13-methyl-1,12,21-triazapentacyclo[12.5.2.0^{3,5}.0^{8,10}.0^ {17,20}]henicosa-14(21),15,17(20),18-tetraen-11-one], the IC50 was determined as 39 nM. The figure for `COc1cc(C(=O)N[C@H]2CNC[C@@H](C(F)F)C2)cc2nc(-c3cc4ccc5nc4n3CC(F)(F)CCC[C@@H]3C[C@H]3C(=O)N[C@@H]5C)n(C)c12` [Example 633, 2-[(2~{R},5~{R},7~{R})-11,11-difluoro-2-methyl-4-oxo-3,13,19-triazatetracyclo[11.5.2.0^ {5,7}.0^{16,20}]icosa-1(19),14,16(20), 17-tetraen-14-yl]- ~{N}-[(3~{R},5~{S})-5-(difluoromethyl)-3-piperidyl]-7-methoxy-1-methyl-benzimidazole-5-carboxamide] is 57 nM; for `COc1cc(C(=O)N2C[C@H](N)[C@@H]3CC[C@H]2C3)cc2nc(-c3cc4ccc5nc4n3CCCCCCCCN(C(C)=O)[C@@H]5C)n(C)c12` [Example 908] it is 151 nM. With `COc1cc(C(=O)N2C[C@H](N)[C@@H]3CC[C@H]2C3)cc2nc(-c3cc4ccc5nc4n3CCCCC[C@@]3(F)C[C@H]3C(=O)N[C@@H]5C)n(C)c12` [Example 711, (2~{R},5~{S},7~{R})-14-[5-[(1~{S),4~{R},5~{R})-4-amino-2-azabicyclo[3.2.1]octane-2-carbonyl]-7-methoxy-1-methyl-benzimidazol-2-yl]-7-fluoro-2-methyl-3,13,19-triazatetracyclo[11.5.2.0^ {5,7}.0^{16,20}]icosa-1(19), 14,16(20),17-tetraen-4-one] the figure was 19 nM; with `CCOCCn1c(-c2cc3ccc4nc3n2CCCCCCC(C)(C)C(=O)N[C@@H]4C)nc2cc(C(=O)N[C@H]3CNCC[C@@H]3F)c(F)cc21` [Example 425, 1-(2-ethoxyethyl)-6-fluoro-~{N}-[(3~{S},4~{S})-4-fluoro-3-piperidyl]-2-[(11~{R})-8,8,11-trimethyl-9-oxo-1,10,19-triazatricyclo[10.5.2.0^{15,18}]nonadeca-12(19),13,15(18),16-tetraen-17-yl]benzimidazole-5-carboxamide], 104 nM. With `COc1cc(C(=O)N2CCC[C@@H](N)C2)cc2nc(-c3cc4ccc5nc4n3CCCCCCCC(=O)N[C@@H]5C)c(C)n12` [Example 301, (11~{R})-17-[7-[(3~{R})-3-aminopiperidine-1-carbonyl]-5-methoxy-3-methyl-imidazo[1,2-a]pyridin-2-yl]-11-methyl-1,10,19-triazatricyclo[10.5.2.0^{15,18}]nonadeca-12(19),13,15(18),16-tetraen-9-one] the figure was 36 nM; with `COc1cc(C(=O)N2[C@H]3CC[C@@H]2[C@H](N)C3)cc2nc(-c3cc4ccc5nc4n3C[C@H]3[C@@H](COCCC(=O)N[C@@H]5C)C3(C)C)n(C)c12` (single isomer, unassigned) [Example 11, (3˜{S},5˜{R},12˜{R})-18-[5-[(1˜{R},2˜{R},4˜{S})-2-amino-7-azabicyclo[2.2.1]heptane-7-carbonyl]-7-methoxy-1-methyl-benzimidazol-2-yl]-4,4,12-trimethyl-7-oxa-1,11,20-triazatetracyclo[11.5.2.0^{3,5}.0^{16,19}]icosa-13(20),14,16(19),7-tetraen-10-one], 251 nM. For `COc1cc(C(=O)N2C[C@H](N)[C@@H]3CC[C@H]2C3)cc2nc(-c3cc4ccc5nc4n3CCCCCCC(C)(C)C(=O)N[C@@H]5C)c(C)n12` [Example 928, (11~{R})-17-[7-[(1~{S},4~{R}, 5~{R})-4-amino-2-azabicyclo [3.2.1]octane-2-carbonyl]-5-methoxy-3-methyl-imidazo [1,2-a]pyridin-2-yl]-8,8,11-trimethyl-1,10,19-triazatricyclo [10.5.2.0^{15,18}]nonadeca-12(19),13,15(18), 16-tetraen-9-one], the IC50 came to 51 nM.

Turning to `COc1cc(C(=O)N2CC[C@@H](OC)[C@@H](N)C2)cc2nc(-c3cc4ccc5nc4n3CCC/C=C/[C@@H]3C[C@@]3(C(F)(F)F)C(=O)N[C@@H]5C)n(C)c12` [Example 635, (2~{R},5~{S},7~{S},8~{E})-14-[5-[(3~{S},4~{R})-3-amino-4-methoxy-piperidine-1-carbonyl]-7-methoxy-1-methyl-benzimidazol-2-yl]-2-methyl-5-(trifluoromethyl)-3,13,19-triazatetracyclo[11.5.2.0^ {5,7}.0^{16,20}] icosa-1(19),8,14,16(20), 17-pentaen-4-one], the IC50 was determined as 682 nM.

Consider `C[C@H]1NC(=O)[C@@]2(C)C[C@@H]2CCCCCn2c(-c3nc4cc(C(=O)N[C@H]5CNCC[C@@H]5F)c(F)cc4n3C)cc3ccc1nc32` [Example 548, 2-[(2~{R},5~{S},7~ {S})-2,5-dimethyl-4-oxo-3,13,19-triazatetracyclo[11.5.2.0^ {5,7}.0^{16,20}]icosa-1(19),14,16(20),17-tetraen-14-yl]-6-fluoro-~{N}-[(3~{S},4~{S})-4-fluoro-3-piperidyl]-1-methyl-benzimidazole-5-carboxamide], for which the IC50 worked out at 56 nM.

As for `COc1cc(C(=O)N2CC[C@@H](OCC(F)F)[C@@H](N)C2)cc2nc(-c3cc4ccc5nc4n3CCCCCCC(C)(C)C(=O)N[C@@H]5C)n(C)c12` [Example 14, (11~{R})-17-[5-[(3~{S),4~{R})-3-amino-4-(2,2-difluoroethoxy)piperidine-1-carbonyl]-7-methoxy-1-methyl-benzimidazol-2-yl]-8,8,11-trimethyl-1,10,19-triazatricyclo[10.5.2.0^{15,18}]nonadeca-12(19),13,15(18),16-tetraen-9-one], the IC50 stood at 121 nM.

As for `COc1cc(C(=O)N2[C@H]3CC[C@@H]2[C@H](N)C3)cc2nc(-c3cc4ccc5nc4n3CC3(CC3)COCCC(=O)N[C@@H]5C)c(C)n12` [Example 329, (10~{R})-16-[7-[(1~{R},2~{R},4~{S})-2-amino-7-azabicyclo[2.2.1]heptane-7-carbonyl]-5-methoxy-3-methyl-imidazo[1,2-a]pyridin-2-yl]-10-methyl-spiro[5-oxa-1,9,18-triazatricyclo[9.5.2.0^{14,17}]octadeca-11(18),12,14(17),15-tetraene-3,1′-cyclopropane]-8-one], the IC50 was found to be 48 nM. In the case of `C[C@H]1NC(=O)[C@@H]2C[C@H]2CCCCCn2c(-c3nc4cc(C(=O)N[C@@H]5CCCNC5)c(F)cc4n3C3CC3)cc3ccc1nc32` [Example 568, 1-cyclopropyl-6-fluoro-2-[(2~{R},5~{R},7~{R})-2-methyl-4-oxo-3,13,19-triazatetracyclo[11.5.2.0^ {5,7}.0^{16,20}]icosa-1(19), 14,16(20),17-tetraen-14-yl]- ~{N}-[(3~{R})-3-piperidyl]benzimidazole-5-carboxamide11,11-difluoro-2-methyl-4-oxo-3,13,19-], the IC50 was 33 nM.

As for `COc1cc(C(=O)N[C@H]2CNCC[C@@H]2F)cc2nc(-c3cc4ccc5nc4n3CCCCC[C@@H]3CC[C@H]3C(=O)N[C@@H]5C)n(C)c12` (single isomer, unassigned) [Example 487, ˜{N}-[(3˜{S},4˜{S})-4-fluoro-3-piperidyl]-7-methoxy-1-methyl-2-[(2˜{R},5˜{R},8˜{R})-2-methyl-4-oxo-3,14,20-triazatetracyclo[12.5.2.0^{5,8}.0^{17,21}]henicosa-1(20),15,17(21),18-tetraen-15-yl]benzimidazole-5-carboxamide], the IC50 is 82 nM. For `COc1cc(C(=O)N2CCC[C@@H](N)C2)cc2nc(-c3cc4ccc5nc4n3CCCCOCCC(=O)N3CCC[C@H]53)n(C)c12` [Example 108, (2~{R})-16-[5-[(3~{R})-3-aminopiperidine-1-carbonyl]-7-methoxy-1-methyl-benzimidazol-2-yl]-10-oxa-6,15,21-triazatetracyclo[13.5.2.0^{2,6}.0^{18,22}] docosa-1(21),16,18(22),19-tetraen-7-one], the IC50 was determined as 150 nM. With `COc1cc(C(=O)N2CCC[C@@H](N)C2)cc2nc(-c3cc4ccc5nc4n3CCCCCC(C)(C)C(=O)N[C@@H]5C)c(C)n12` [Example 106, (10~{R})-16-[7-[(3~{R})-3-aminopiperidine-1-carbonyl]-5-methoxy-3-methyl-imidazo[1,2-a]pyridin-2-yl]-7,7,10-trimethyl-1,9,18-triazatricyclo[9.5.2.0^{14,17}]octadeca-11(18),12,14(17),15-tetraen-8-one] the figure was 201 nM; with `COc1cc(C(=O)N2CC[C@@H](OC(F)F)[C@@H](N)C2)cc2nc(-c3cc4ccc5nc4n3CC(F)(F)CCCCC(C)(C)C(=O)N[C@@H]5C)n(C)c12` [Example 609, (11~{R})-17-[5-[(3~{S}, 4~{R})-3-amino-4-(difluoromethoxy)piperidine-1-carbonyl]-7-methoxy-1-methyl-benzimidazol-2-yl]-3,3-difluoro-8,8,11-trimethyl-1,10,19-triazatricyclo[10.5.2.0^ {15,18}]nonadeca-12,14,16,18-tetraen-9-one], 172 nM; with `C[C@H]1NC(=O)[C@@H]2C[C@@H]2CCCC(F)(F)Cn2c(-c3nc4cc(C(=O)N5C[C@H](N)[C@@H]6CC[C@H]5C6)cc(F)c4n3C3CC3)cc3ccc1nc32` [Example 682, (2~{R},5~{R},7~{S})-14-[5-[(1~{S},4~{R},5~{R})-4-amino-2-azabicyclo[3.2.1]octane-2-carbonyl]-1-cyclopropyl-7-fluoro-benzimidazol-2-yl]-11,11-difluoro-2-methyl-3,13,19-triazatetracyclo[11.5.2.0^ {5,7}.0^{16,20}] icosa-1(19),14,16(20), 17-tetraen-4-one], 28 nM.
